{"source": "the NIST ThermoML archive (doi:10.1016/j.fluid.2018.09.024)", "assay": "activity coefficient (dimensionless); of the first substance listed, at infinite dilution; xn = mol fraction of the nth substance listed", "conditions": "101.33 kPa, Liquid, Chromatography, x1 = 0", "note": "± gives the expanded uncertainty stated by the source."}
{"smiles": "CCCc1ccccc1", "note": "[propylbenzene] + CCCCCCCCCCCC[N+](C)(C)CCOc1ccccc1.O=S(=O)([N-]S(=O)(=O)C(F)(F)F)C(F)(F)F", "values": [{"measurement": "activity coefficient", "setting": "318.15 K", "result": "1.09 ± 0.07"}, {"measurement": "activity coefficient", "setting": "328.15 K", "result": "1.15 ± 0.07"}, {"measurement": "activity coefficient", "setting": "338.15 K", "result": "1.2 ± 0.08"}, {"measurement": "activity coefficient", "setting": "348.15 K", "result": "1.26 ± 0.08"}, {"measurement": "activity coefficient", "setting": "358.15 K", "result": "1.32 ± 0.09"}, {"measurement": "activity coefficient", "setting": "368.15 K", "result": "1.37 ± 0.09"}]}
{"smiles": "c1ccncc1", "note": "[pyridine] + CCCCCCCCCCCC[N+](C)(C)CCOc1ccccc1.N#C[N-]C#N", "values": [{"measurement": "activity coefficient", "setting": "328.15 K", "result": "0.586 ± 0.042"}, {"measurement": "activity coefficient", "setting": "338.15 K", "result": "0.604 ± 0.042"}, {"measurement": "activity coefficient", "setting": "348.15 K", "result": "0.622 ± 0.043"}, {"measurement": "activity coefficient", "setting": "358.15 K", "result": "0.639 ± 0.044"}, {"measurement": "activity coefficient", "setting": "368.15 K", "result": "0.656 ± 0.045"}, {"measurement": "activity coefficient", "setting": "378.15 K", "result": "0.673 ± 0.046"}]}
{"smiles": "c1ccncc1", "note": "[pyridine] + CCCCCCCCCCCC[N+](C)(C)CCOc1ccccc1.O=S(=O)([N-]S(=O)(=O)C(F)(F)F)C(F)(F)F", "values": [{"measurement": "activity coefficient", "setting": "318.15 K", "result": "0.278 ± 0.03"}, {"measurement": "activity coefficient", "setting": "328.15 K", "result": "0.296 ± 0.031"}, {"measurement": "activity coefficient", "setting": "338.15 K", "result": "0.313 ± 0.031"}, {"measurement": "activity coefficient", "setting": "348.15 K", "result": "0.33 ± 0.032"}, {"measurement": "activity coefficient", "setting": "358.15 K", "result": "0.346 ± 0.032"}, {"measurement": "activity coefficient", "setting": "368.15 K", "result": "0.363 ± 0.033"}]}
{"smiles": "C=Cc1ccccc1", "note": "[styrene] + CCCCCCCCCCCC[N+](C)(C)CCOc1ccccc1.N#C[N-]C#N", "values": [{"measurement": "activity coefficient", "setting": "328.15 K", "result": "0.905 ± 0.057"}, {"measurement": "activity coefficient", "setting": "338.15 K", "result": "0.94 ± 0.06"}, {"measurement": "activity coefficient", "setting": "348.15 K", "result": "0.981 ± 0.062"}, {"measurement": "activity coefficient", "setting": "358.15 K", "result": "1.02 ± 0.06"}, {"measurement": "activity coefficient", "setting": "368.15 K", "result": "1.06 ± 0.07"}, {"measurement": "activity coefficient", "setting": "378.15 K", "result": "1.1 ± 0.07"}]}
{"smiles": "C=Cc1ccccc1", "note": "[styrene] + CCCCCCCCCCCC[N+](C)(C)CCOc1ccccc1.O=S(=O)([N-]S(=O)(=O)C(F)(F)F)C(F)(F)F", "values": [{"measurement": "activity coefficient", "setting": "318.15 K", "result": "0.632 ± 0.044"}, {"measurement": "activity coefficient", "setting": "328.15 K", "result": "0.672 ± 0.046"}, {"measurement": "activity coefficient", "setting": "338.15 K", "result": "0.711 ± 0.047"}, {"measurement": "activity coefficient", "setting": "348.15 K", "result": "0.75 ± 0.049"}, {"measurement": "activity coefficient", "setting": "358.15 K", "result": "0.788 ± 0.051"}, {"measurement": "activity coefficient", "setting": "368.15 K", "result": "0.83 ± 0.05"}]}
{"smiles": "C1CCOC1", "note": "[tetrahydrofuran] + CCCCCCCCCCCC[N+](C)(C)CCOc1ccccc1.N#C[N-]C#N", "values": [{"measurement": "activity coefficient", "setting": "328.15 K", "result": "0.704 ± 0.047"}, {"measurement": "activity coefficient", "setting": "338.15 K", "result": "0.726 ± 0.048"}, {"measurement": "activity coefficient", "setting": "348.15 K", "result": "0.749 ± 0.049"}, {"measurement": "activity coefficient", "setting": "358.15 K", "result": "0.77 ± 0.05"}, {"measurement": "activity coefficient", "setting": "368.15 K", "result": "0.791 ± 0.051"}, {"measurement": "activity coefficient", "setting": "378.15 K", "result": "0.81 ± 0.052"}]}
{"smiles": "C1CCOC1", "note": "[tetrahydrofuran] + CCCCCCCCCCCC[N+](C)(C)CCOc1ccccc1.O=S(=O)([N-]S(=O)(=O)C(F)(F)F)C(F)(F)F", "values": [{"measurement": "activity coefficient", "setting": "318.15 K", "result": "0.364 ± 0.033"}, {"measurement": "activity coefficient", "setting": "328.15 K", "result": "0.39 ± 0.034"}, {"measurement": "activity coefficient", "setting": "338.15 K", "result": "0.418 ± 0.035"}, {"measurement": "activity coefficient", "setting": "348.15 K", "result": "0.446 ± 0.036"}, {"measurement": "activity coefficient", "setting": "358.15 K", "result": "0.473 ± 0.037"}, {"measurement": "activity coefficient", "setting": "368.15 K", "result": "0.502 ± 0.038"}]}
{"smiles": "c1ccsc1", "note": "[thiophene] + CCCCCCCCCCCC[N+](C)(C)CCOc1ccccc1.N#C[N-]C#N", "values": [{"measurement": "activity coefficient", "setting": "328.15 K", "result": "0.648 ± 0.044"}, {"measurement": "activity coefficient", "setting": "338.15 K", "result": "0.674 ± 0.046"}, {"measurement": "activity coefficient", "setting": "348.15 K", "result": "0.699 ± 0.047"}, {"measurement": "activity coefficient", "setting": "358.15 K", "result": "0.724 ± 0.048"}, {"measurement": "activity coefficient", "setting": "368.15 K", "result": "0.749 ± 0.049"}, {"measurement": "activity coefficient", "setting": "378.15 K", "result": "0.773 ± 0.051"}]}
{"smiles": "c1ccsc1", "note": "[thiophene] + CCCCCCCCCCCC[N+](C)(C)CCOc1ccccc1.O=S(=O)([N-]S(=O)(=O)C(F)(F)F)C(F)(F)F", "values": [{"measurement": "activity coefficient", "setting": "318.15 K", "result": "0.534 ± 0.039"}, {"measurement": "activity coefficient", "setting": "328.15 K", "result": "0.562 ± 0.04"}, {"measurement": "activity coefficient", "setting": "338.15 K", "result": "0.591 ± 0.042"}, {"measurement": "activity coefficient", "setting": "348.15 K", "result": "0.62 ± 0.043"}, {"measurement": "activity coefficient", "setting": "358.15 K", "result": "0.649 ± 0.044"}, {"measurement": "activity coefficient", "setting": "368.15 K", "result": "0.68 ± 0.046"}]}
{"smiles": "Cc1ccccc1", "note": "[toluene] + CCCCCCCCCCCC[N+](C)(C)CCOc1ccccc1.N#C[N-]C#N", "values": [{"measurement": "activity coefficient", "setting": "328.15 K", "result": "1.05 ± 0.07"}, {"measurement": "activity coefficient", "setting": "338.15 K", "result": "1.1 ± 0.07"}, {"measurement": "activity coefficient", "setting": "348.15 K", "result": "1.15 ± 0.07"}, {"measurement": "activity coefficient", "setting": "358.15 K", "result": "1.19 ± 0.08"}, {"measurement": "activity coefficient", "setting": "368.15 K", "result": "1.24 ± 0.08"}, {"measurement": "activity coefficient", "setting": "378.15 K", "result": "1.28 ± 0.08"}]}
{"smiles": "Cc1ccccc1", "note": "[toluene] + CCCCCCCCCCCC[N+](C)(C)CCOc1ccccc1.O=S(=O)([N-]S(=O)(=O)C(F)(F)F)C(F)(F)F", "values": [{"measurement": "activity coefficient", "setting": "318.15 K", "result": "0.681 ± 0.046"}, {"measurement": "activity coefficient", "setting": "328.15 K", "result": "0.725 ± 0.048"}, {"measurement": "activity coefficient", "setting": "338.15 K", "result": "0.766 ± 0.05"}, {"measurement": "activity coefficient", "setting": "348.15 K", "result": "0.81 ± 0.052"}, {"measurement": "activity coefficient", "setting": "358.15 K", "result": "0.851 ± 0.055"}, {"measurement": "activity coefficient", "setting": "368.15 K", "result": "0.893 ± 0.057"}]}
{"smiles": "C=COC(C)=O", "note": "[vinyl acetate] + CCCCCCCCCCCC[N+](C)(C)CCOc1ccccc1.N#C[N-]C#N", "values": [{"measurement": "activity coefficient", "setting": "328.15 K", "result": "1.24 ± 0.08"}, {"measurement": "activity coefficient", "setting": "338.15 K", "result": "1.28 ± 0.08"}, {"measurement": "activity coefficient", "setting": "348.15 K", "result": "1.31 ± 0.09"}, {"measurement": "activity coefficient", "setting": "358.15 K", "result": "1.35 ± 0.09"}, {"measurement": "activity coefficient", "setting": "368.15 K", "result": "1.38 ± 0.09"}, {"measurement": "activity coefficient", "setting": "378.15 K", "result": "1.41 ± 0.09"}]}
{"smiles": "C=COC(C)=O", "note": "[vinyl acetate] + CCCCCCCCCCCC[N+](C)(C)CCOc1ccccc1.O=S(=O)([N-]S(=O)(=O)C(F)(F)F)C(F)(F)F", "values": [{"measurement": "activity coefficient", "setting": "318.15 K", "result": "0.393 ± 0.034"}, {"measurement": "activity coefficient", "setting": "328.15 K", "result": "0.414 ± 0.034"}, {"measurement": "activity coefficient", "setting": "338.15 K", "result": "0.434 ± 0.035"}, {"measurement": "activity coefficient", "setting": "348.15 K", "result": "0.453 ± 0.036"}, {"measurement": "activity coefficient", "setting": "358.15 K", "result": "0.473 ± 0.037"}, {"measurement": "activity coefficient", "setting": "368.15 K", "result": "0.493 ± 0.038"}]}
{"smiles": "O", "note": "[water] + CCCCCCCCCCCC[N+](C)(C)CCOc1ccccc1.N#C[N-]C#N", "values": [{"measurement": "activity coefficient", "setting": "328.15 K", "result": "0.467 ± 0.036"}, {"measurement": "activity coefficient", "setting": "338.15 K", "result": "0.479 ± 0.037"}, {"measurement": "activity coefficient", "setting": "348.15 K", "result": "0.489 ± 0.037"}, {"measurement": "activity coefficient", "setting": "358.15 K", "result": "0.5 ± 0.04"}, {"measurement": "activity coefficient", "setting": "368.15 K", "result": "0.51 ± 0.038"}, {"measurement": "activity coefficient", "setting": "378.15 K", "result": "0.52 ± 0.039"}]}
{"smiles": "O", "note": "[water] + CCCCCCCCCCCC[N+](C)(C)CCOc1ccccc1.O=S(=O)([N-]S(=O)(=O)C(F)(F)F)C(F)(F)F", "values": [{"measurement": "activity coefficient", "setting": "318.15 K", "result": "3.65 ± 0.25"}, {"measurement": "activity coefficient", "setting": "328.15 K", "result": "3.32 ± 0.23"}, {"measurement": "activity coefficient", "setting": "338.15 K", "result": "3.04 ± 0.21"}, {"measurement": "activity coefficient", "setting": "348.15 K", "result": "2.8 ± 0.19"}, {"measurement": "activity coefficient", "setting": "358.15 K", "result": "2.59 ± 0.18"}, {"measurement": "activity coefficient", "setting": "368.15 K", "result": "2.4 ± 0.16"}]}
